Assay results published in US12077503B2, “Substituted cyclic amides and their use as herbicides” (FMC CORPORATION, priority 2015, dated 2024).

Tests used:
Type in all cases: in vivo
[1] = test system: barnyardgrass (Echinochloa crus-galli); assay: Test A preemergence; conditions: for Plant response rating, Barnyardgrass: 125 g ai/ha; for Barnyardgrass plant response rating (0 to 100 scale, 0 is no effect, 100 is complete control): visual injury approx. 10 d
Outline: (§1)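 Seeded soil received test chemicals as a preemergence directed spray, and seedlings at one to two leaves, 2–10 cm tall, received them postemergence, in a non-phytotoxic, surfactant-containing solvent mixture. Pots were held in a greenhouse for approximately 10 d, then rated for injury from 0, no effect, to 100, complete control.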

[2] = test system: Kochia (Kochia scoparia); assay: Test A preemergence; conditions: for Plant response rating, Kochia: 125 g ai/ha; for Kochia plant response rating (0 to 100 scale, 0 is no effect, 100 is complete control): visual injury approx. 10 d
Outline: as §1

[3] = test system: ryegrass, Italian (Italian ryegrass, Lolium multiflorum); assay: Test A preemergence; conditions: for Plant response rating, Ryegrass, Italian: 125 g ai/ha; for Ryegrass, Italian plant response rating (0 to 100 scale, 0 is no effect, 100 is complete control): visual injury approx. 10 d
Outline: as §1

[4] = test system: ragweed (common ragweed, Ambrosia elatior); assay: Test A preemergence; conditions: for Plant response rating, Ragweed: 125 g ai/ha; for Ragweed plant response rating (0 to 100 scale, 0 is no effect, 100 is complete control): visual injury approx. 10 d
Outline: as §1

[5] = test system: pigweed (Amaranthus retroflexus); assay: Test A preemergence; conditions: for Plant response rating, Pigweed: 125 g ai/ha; for Pigweed plant response rating (0 to 100 scale, 0 is no effect, 100 is complete control): visual injury approx. 10 d
[6] = test system: giant foxtail (Setaria faberii); assay: Test A preemergence; conditions: for Plant response rating, Foxtail, Giant: 125 g ai/ha; for Foxtail, Giant plant response rating (0 to 100 scale, 0 is no effect, 100 is complete control): visual injury approx. 10 d
Outline: as §1

[7] = test system: barnyardgrass (Echinochloa crus-galli); assay: Test A postemergence
Outline: as §1

[8] = test system: Kochia (Kochia scoparia); assay: Test A postemergence
Outline: as §1

[9] = test system: Galium (catchweed bedstraw, Galium aparine); assay: Test A postemergence
Outline: as §1

[10] = test system: corn (Zea mays); assay: Test A postemergence
Outline: as §1

[11] = test system: ryegrass, Italian (Italian ryegrass, Lolium multiflorum); assay: Test A postemergence
Outline: as §1

[12] = test system: blackgrass (Alopecurus myosuroides); assay: Test A postemergence
Outline: as §1

[13] = test system: ragweed (common ragweed, Ambrosia elatior); assay: Test A postemergence
Outline: as §1

[14] = test system: pigweed (Amaranthus retroflexus); assay: Test A postemergence
Outline: as §1

[15] = test system: giant foxtail (Setaria faberii); assay: Test A postemergence
Outline: as §1

[16] = test system: wheat (Triticum aestivum); assay: Test A postemergence
Outline: as §1

[17] = test system: rice (Oryra sativa); assay: Test B flooded paddy test; conditions: Flood, 250 g ai/ha; 0 to 100 scale where 0 is no effect and 100 is complete control; 13 to 15 d
Outline: (§2)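 Plants at 2-leaf stage flooded to 3 cm above soil, with compounds applied directly to paddy water and that depth maintained. Plants kept in greenhouse 13–15 d. Visual rating versus controls on a 0 (no effect) to 100 (complete control) scale.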

[18] = test system: sedge, umbrella (small-flower umbrella sedge, Cyperus difformis); assay: Test B flooded paddy test; conditions: Flood, 250 g ai/ha; 0 to 100 scale where 0 is no effect and 100 is complete control; 13 to 15 d
Outline: as §2

[19] = test system: barnyardgrass (Echinochloa crus-galli); assay: Test B flooded paddy test; conditions: Flood, 250 g ai/ha; 0 to 100 scale where 0 is no effect and 100 is complete control; 13 to 15 d
Outline: as §2

[20] = test system: ducksalad (Heteranthera limosa); assay: Test B flooded paddy test; conditions: Flood, 250 g ai/ha; 0 to 100 scale where 0 is no effect and 100 is complete control; 13 to 15 d
Outline: as §2

[21] = preemergence, 0 to 100 scale (0 no effect, 100 complete control)
[22] = Preemergence, 500 g ai/ha, 0 is no effect, 100 is complete control
[23] = 500 g ai/ha, postemergence, 0 to 100 scale, 0 no effect, 100 complete control
[24] = Postemergence, 125 g ai/ha, visual injury, 0 to 100 scale (0 no effect, 100 complete control), approx. 10 d
[25] = 125 g ai/ha, postemergence, visual injury rating on 0 to 100 scale (0 no effect, 100 complete control), approx. 10 d
[26] = Preemergence, visual injury after approximately 10 d, 0 to 100 scale where 0 is no effect and 100 is complete control
[27] = 125 g ai/ha, postemergence, visual rating after approx. 10 d, 0 to 100 scale (0 no effect, 100 complete control)
[28] = Postemergence, 500 g ai/ha, 0 to 100 scale where 0 is no effect and 100 is complete control

For `COc1cccc(C2CNC(=O)C2C(=O)Nc2cccc(F)c2F)c1` (racemic) [Compound 383], the “Plant response rating, Barnyardgrass” value [1, 21] was 50, the “Barnyardgrass plant response rating (0 to 100 scale)” value [1, 22] was 90 and the “Plant response rating, Kochia” value [2, 21] was 0. For the same molecule, the “Kochia plant response rating (0 to 100 scale)” value [2, 22] was 20, the “Plant response rating, Ryegrass, Italian” value [3, 21] was 0 and the “Ryegrass, Italian plant response rating (0 to 100 scale)” value [3, 22] was 20. For the same molecule, the “Plant response rating, Ragweed” value [4, 21] was 0, the “Ragweed plant response rating (0 to 100 scale)” value [4, 22] was 0 and the “Plant response rating, Pigweed” value [5, 21] was 0. The “Pigweed plant response rating (0 to 100 scale)” value [5, 22] was 0, the “Plant response rating, Foxtail, Giant” value [6, 21] was 50 and the “Foxtail, Giant plant response rating (0 to 100 scale)” value [6, 22] was 70. The “Plant response rating, Barnyardgrass” value [7, 23] was 90, the “Plant response rating, Barnyardgrass” value [7, 24] was 70 and the “Kochia plant response rating” value [8, 25] was 0. For the same molecule, the “Plant response rating, Kochia” value [8, 23] was 30, the “Galium plant response rating” value [9, 25] was 0 and the “Plant response rating, Galium” value [9, 23] was 0. For the same molecule, the “Corn plant response rating” value [10, 25] was 0, the “Plant response rating, Corn” value [10, 23] was 0 and the “Ryegrass, Italian plant response rating” value [11, 25] was 20. For the same molecule, the “Plant response rating, Ryegrass, Italian” value [11, 23] was 30, the “Plant response rating, Blackgrass” value [12, 23] was 0 and the “Plant response rating, Blackgrass” value [12, 24] was 0. For the same molecule, the “Ragweed plant response rating” value [13, 25] was 0, the “Plant response rating, Ragweed” value [13, 23] was 20 and the “Pigweed plant response rating” value [14, 25] was 0. The “Plant response rating, Pigweed” value [14, 23] was 0, the “Foxtail, Giant plant response rating” value [15, 25] was 30 and the “Plant response rating, Foxtail, Giant” value [15, 23] was 50. For the same molecule, the “Wheat plant response rating” value [16, 25] was 0, the “Plant response rating, Wheat” value [16, 23] was 0 and the “Plant response rating, Rice” value [17] was 0. The “Plant response rating, Sedge, Umbrella” value [18] was 0, the “Plant response rating, Barnyardgrass” value [19] was 0 and the “Plant response rating, Ducksalad” value [20] was 30.
For `O=C1NCC(c2ccsc2Br)C1C(=O)Nc1ccccc1F` (stereo not drawn) [Compound 597], the “Plant response rating, Barnyardgrass” value [1, 26] was 20, the “Barnyardgrass plant response rating (0 to 100 scale, 0 is no effect, 100 is complete control)” value ([1]; Preemergence, 500 g ai/ha) was 70 and the “Plant response rating, Kochia” value [2, 26] was 0. The “Kochia plant response rating (0 to 100 scale, 0 is no effect, 100 is complete control)” value ([2]; Preemergence, 500 g ai/ha) was 20, the “Plant response rating, Ryegrass, Italian” value [3, 26] was 0 and the “Ryegrass, Italian plant response rating (0 to 100 scale, 0 is no effect, 100 is complete control)” value ([3]; Preemergence, 500 g ai/ha) was 0. For the same molecule, the “Plant response rating, Ragweed” value [4, 26] was 0, the “Ragweed plant response rating (0 to 100 scale, 0 is no effect, 100 is complete control)” value ([4]; Preemergence, 500 g ai/ha) was 0 and the “Plant response rating, Pigweed” value [5, 26] was 0. The “Pigweed plant response rating (0 to 100 scale, 0 is no effect, 100 is complete control)” value ([5]; Preemergence, 500 g ai/ha) was 0, the “Plant response rating, Foxtail, Giant” value [6, 26] was 20 and the “Foxtail, Giant plant response rating (0 to 100 scale, 0 is no effect, 100 is complete control)” value ([6]; Preemergence, 500 g ai/ha) was 80. For the same molecule, the “Plant response rating, Barnyardgrass” value [7, 27] was 0, the “Plant response rating, Barnyardgrass” value [7, 28] was 30 and the “Plant response rating, Kochia” value [8, 27] was 0. For the same molecule, the “Plant response rating, Kochia” value [8, 28] was 0, the “Plant response rating, Galium” value [9, 27] was 0 and the “Plant response rating, Galium” value [9, 28] was 20. For the same molecule, the “Plant response rating, Corn” value [10, 27] was 0, the “Plant response rating, Corn” value [10, 28] was 20 and the “Plant response rating, Ryegrass, Italian” value [11, 27] was 0. For the same molecule, the “Plant response rating, Ryegrass, Italian” value [11, 28] was 0, the “Plant response rating, Blackgrass” value [12, 27] was 0 and the “Plant response rating, Blackgrass” value [12, 28] was 20. For the same molecule, the “Plant response rating, Ragweed” value [13, 27] was 0, the “Plant response rating, Ragweed” value [13, 28] was 0 and the “Plant response rating, Pigweed” value [14, 27] was 0. For the same molecule, the “Plant response rating, Pigweed” value [14, 28] was 0, the “Plant response rating, Foxtail, Giant” value [15, 27] was 0 and the “Plant response rating, Foxtail, Giant” value [15, 28] was 30. The “Plant response rating, Wheat” value [16, 27] was 0, the “Plant response rating, Wheat” value [16, 28] was 20 and the “Plant response rating, Rice” value [17] was 0. The “Plant response rating, Sedge, Umbrella” value [18] was 0, the “Plant response rating, Barnyardgrass” value [19] was 0 and the “Plant response rating, Ducksalad” value [20] was 50.
In the case of `O=C1NCC(c2cc(C(F)(F)F)ccc2F)C1C(=O)Nc1ccc(F)cc1F` (stereo not drawn) [Compound 595], the “Plant response rating, Barnyardgrass” value [1, 26] is reported as 90, the “Barnyardgrass plant response rating (0 to 100 scale, 0 is no effect, 100 is complete control)” value ([1]; Preemergence, 500 g ai/ha) is reported as 90 and the “Plant response rating, Kochia” value [2, 26] is reported as 40. The “Kochia plant response rating (0 to 100 scale, 0 is no effect, 100 is complete control)” value ([2]; Preemergence, 500 g ai/ha) was 50, the “Plant response rating, Ryegrass, Italian” value [3, 26] was 20 and the “Ryegrass, Italian plant response rating (0 to 100 scale, 0 is no effect, 100 is complete control)” value ([3]; Preemergence, 500 g ai/ha) was 40. For the same molecule, the “Plant response rating, Ragweed” value [4, 26] was 0, the “Ragweed plant response rating (0 to 100 scale, 0 is no effect, 100 is complete control)” value ([4]; Preemergence, 500 g ai/ha) was 30 and the “Plant response rating, Pigweed” value [5, 26] was 30. The “Pigweed plant response rating (0 to 100 scale, 0 is no effect, 100 is complete control)” value ([5]; Preemergence, 500 g ai/ha) was 30, the “Plant response rating, Foxtail, Giant” value [6, 26] was 90 and the “Foxtail, Giant plant response rating (0 to 100 scale, 0 is no effect, 100 is complete control)” value ([6]; Preemergence, 500 g ai/ha) was 90. For the same molecule, the “Plant response rating, Barnyardgrass” value [7, 27] was 90, the “Plant response rating, Barnyardgrass” value [7, 28] was 90 and the “Plant response rating, Kochia” value [8, 27] was 0. For the same molecule, the “Plant response rating, Kochia” value [8, 28] was 30, the “Plant response rating, Galium” value [9, 27] was 0 and the “Plant response rating, Galium” value [9, 28] was 20. The “Plant response rating, Corn” value [10, 27] was 30, the “Plant response rating, Corn” value [10, 28] was 60 and the “Plant response rating, Ryegrass, Italian” value [11, 27] was 20. For the same molecule, the “Plant response rating, Ryegrass, Italian” value [11, 28] was 40, the “Plant response rating, Blackgrass” value [12, 27] was 20 and the “Plant response rating, Blackgrass” value [12, 28] was 40. The “Plant response rating, Ragweed” value [13, 27] was 0, the “Plant response rating, Ragweed” value [13, 28] was 0 and the “Plant response rating, Pigweed” value [14, 27] was 20. The “Plant response rating, Pigweed” value [14, 28] was 30, the “Plant response rating, Foxtail, Giant” value [15, 27] was 90 and the “Plant response rating, Foxtail, Giant” value [15, 28] was 90. The “Plant response rating, Wheat” value [16, 27] was 30, the “Plant response rating, Wheat” value [16, 28] was 50 and the “Plant response rating, Rice” value [17] was 20. For the same molecule, the “Plant response rating, Sedge, Umbrella” value [18] was 70, the “Plant response rating, Barnyardgrass” value [19] was 50 and the “Plant response rating, Ducksalad” value [20] was 80.
